What was measured:
[1] = target: VEGFR2 autophosphorylation (pVEGFR2) in HUVEC cells (Homo sapiens (Human), UniProt P35968); test: Inhibition of VEGF-induced VEGFR2 autophosphorylation in HUVEC cells (ELISA); type: cell-based; conditions: 50 ng/ml human VEGF, compound 1 h
Excerpt: Vascular endothelial growth factor receptor 2 (VEGFR2) is a primary receptor for VEGF-induced endothelial cell signaling. After ligand binding, VEGFR2 is autophosphorylated and activated. The main function of signaling from VEGFR2 is to induce vascularization during development and after tissue injury, and to bypass blocked blood vessels. Pathologically, VEGF and VEGFR2 are involved in tumor angiogenesis and vascular leakage. They are considered to be main participants in many different cancers and ocular diseases that accompany pathological neovascularization. This assay measured the ability of the compounds to inhibit VEGF-induced VEGFR2 autophosphorylation (pVEGFR2) in HUVEC cells by using ELISA.
Culture cells in a cell culture flask to reach a fusion degree of 60%-80% before cell inoculation. Dilute the cell suspension to […] with a pre-warmed complete medium. Add 80 μL of the cell suspension to all wells of a 96-well cell plate (Corning-3599); and incubate the plate overnight at 37° C. in the presence of 5% CO2. Dissolve the compound powder to 10 mM with DMSO and store it in a nitrogen cabinet. Compound dilution plate: Add a reference compound Ponatinib or a compound to be tested to a 96 V-well plate (Axygen-WIpp 2280) at concentrations achieved as follows: performing 3-fold gradient dilution starting from 5 mM (5 μL of 10 mM compound solution plus 5 μL of DMSO) for a total of 8 concentration points. […] Transfer 20 μL of the diluted compound from the intermediate plate to a cell plate. Then, incubate the cell plate for 1 h at 37° C. in the presence of 5% CO2. After the compound was treated for 1 h, add 25 μL of 250 ng/ml human VEGF at a final concentration of 50 ng/ml to a 96-well plate; and incubate the plate for 5 min at 37° C. in the presence of 5% CO2, centrifuge the plate for 10 min at 3,000 rpm, remove the medium and wash the cells once with 300 μL of pre-chilled DPBS per well. Then, centrifuge the plate for 10 min at 4,000 rpm, remove DPBS, and add 110 μL of pre-chilled 1× cell lysis buffer per well to the 96-well plate. Shake the plate for 40 min at 4° C. Then, freeze the plate in a refrigerator at −80° C. On the next day, remove the plate from the refrigerator at −80° C., thaw the plate, centrifuge the plate for 10 min at 3500 rpm, and add 100 μL of the supernatant per well to an ELISA plate. Seal the plate and incubate it for 2 h at 37° C. Wash the wells 4 times with 1× wash buffer. Add 100 μL of recombinant detection antibody per well. Seal the plate, incubate the plate for 1 h at 37° C., and repeat the step of plate washing. Add 100 μL of secondary antibody per well. Seal the plate, incubate the plate for 30 min at 37° C., and repeat the step of plate washing. Add 100 μL of TMB (protected from light) per well. Seal the plate, incubate the plate for 30 min at 37° C., and add 100 μL of the stop solution per well. Gently shake for 30 sec, measure the absorbance with a SpectraMax® 340 PC 384 Absorbance Microplate Reader within 30 min, and read an optical density value at 450 nm. Conduct data analysis using XL Fit software:
Conduct curve fitting using the 4 Parameter Logistic Model or Sigmoidal Dose-Response Model:
X indicating the log value of compound concentration, Y indicating the inhibition ratio (% inhibition), Top indicating the readout of the negative control wells, and bottom indicating the readout of the positive control well.

melanin = test: Binding capacity of compounds to melanin; type: in vitro ADME; conditions: Sepia officinalis (cuttlefish), melanin suspension (1 mg/mL); 1 mg/mL melanin suspension in PBS pH 7.4, 2 μM compound, 2 h at 37° C.; read-out: Fu % (percentage of free drug, not bound to melanin)
Procedure, shortened: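 Compound at 2 μM final incubated with 1 mg/mL Sepia melanin suspension in PBS pH 7.4 for 2 h at 37 °C with shaking; blank control in PBS with 0.1% BSA. Supernatant concentrations measured by LC-MS/MS; bound fraction from melanin versus control samples, free fraction as 100 − Fb.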

KDR (VEGFR2) = KDR (VEGFR2) (Homo sapiens (Human), UniProt P35968); test: Kinase inhibition, Mobility Shift Assay (VEGFR2); type: biochemical
Procedure, shortened: (§1)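 Mobility shift assay: each kinase preincubated 10 min at room temperature with compound, then reacted with FAM-labeled peptide, MgCl2 and ATP at 28° C. for varying times. Substrate-to-product conversion read on Caliper; % inhibition normalised to no-kinase and DMSO controls, and IC50 fitted.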

EGFR = EGFR (Homo sapiens (Human), UniProt P00533); test: Kinase inhibition, Mobility Shift Assay (EGFR); type: biochemical
Procedure, shortened: as §1

EGFR, sequence (P00533 25-1210): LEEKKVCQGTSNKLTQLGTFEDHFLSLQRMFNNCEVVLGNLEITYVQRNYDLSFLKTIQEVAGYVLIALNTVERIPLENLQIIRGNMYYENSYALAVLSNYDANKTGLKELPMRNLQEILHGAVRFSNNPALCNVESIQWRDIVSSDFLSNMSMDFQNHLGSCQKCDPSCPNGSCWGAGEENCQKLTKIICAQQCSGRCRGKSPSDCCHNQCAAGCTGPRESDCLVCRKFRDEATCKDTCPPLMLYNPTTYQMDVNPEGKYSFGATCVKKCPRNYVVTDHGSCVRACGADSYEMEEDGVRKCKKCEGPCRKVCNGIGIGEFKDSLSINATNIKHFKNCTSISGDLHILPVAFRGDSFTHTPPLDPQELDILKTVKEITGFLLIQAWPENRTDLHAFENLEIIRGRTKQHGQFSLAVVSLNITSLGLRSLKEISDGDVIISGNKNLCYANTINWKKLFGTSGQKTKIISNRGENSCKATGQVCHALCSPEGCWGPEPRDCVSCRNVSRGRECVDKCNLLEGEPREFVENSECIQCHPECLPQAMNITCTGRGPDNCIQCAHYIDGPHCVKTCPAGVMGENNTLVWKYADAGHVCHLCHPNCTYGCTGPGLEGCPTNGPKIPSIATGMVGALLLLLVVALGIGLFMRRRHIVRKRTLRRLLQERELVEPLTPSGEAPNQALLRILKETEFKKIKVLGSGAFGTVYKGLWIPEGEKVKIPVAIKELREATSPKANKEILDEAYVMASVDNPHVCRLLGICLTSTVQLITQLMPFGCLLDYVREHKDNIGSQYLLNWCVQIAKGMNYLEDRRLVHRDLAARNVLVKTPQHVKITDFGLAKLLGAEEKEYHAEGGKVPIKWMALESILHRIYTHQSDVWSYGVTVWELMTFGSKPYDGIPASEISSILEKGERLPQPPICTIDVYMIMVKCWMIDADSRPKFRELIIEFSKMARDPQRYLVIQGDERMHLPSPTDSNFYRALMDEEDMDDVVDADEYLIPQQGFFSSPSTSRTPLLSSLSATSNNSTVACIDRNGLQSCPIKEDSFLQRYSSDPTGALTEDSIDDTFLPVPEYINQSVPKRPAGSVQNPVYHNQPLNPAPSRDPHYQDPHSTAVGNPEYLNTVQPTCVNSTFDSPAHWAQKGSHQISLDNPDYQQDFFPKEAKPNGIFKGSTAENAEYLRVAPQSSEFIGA
VEGFR2 autophosphorylation (pVEGFR2) in HUVEC cells, sequence (P35968 20-1356): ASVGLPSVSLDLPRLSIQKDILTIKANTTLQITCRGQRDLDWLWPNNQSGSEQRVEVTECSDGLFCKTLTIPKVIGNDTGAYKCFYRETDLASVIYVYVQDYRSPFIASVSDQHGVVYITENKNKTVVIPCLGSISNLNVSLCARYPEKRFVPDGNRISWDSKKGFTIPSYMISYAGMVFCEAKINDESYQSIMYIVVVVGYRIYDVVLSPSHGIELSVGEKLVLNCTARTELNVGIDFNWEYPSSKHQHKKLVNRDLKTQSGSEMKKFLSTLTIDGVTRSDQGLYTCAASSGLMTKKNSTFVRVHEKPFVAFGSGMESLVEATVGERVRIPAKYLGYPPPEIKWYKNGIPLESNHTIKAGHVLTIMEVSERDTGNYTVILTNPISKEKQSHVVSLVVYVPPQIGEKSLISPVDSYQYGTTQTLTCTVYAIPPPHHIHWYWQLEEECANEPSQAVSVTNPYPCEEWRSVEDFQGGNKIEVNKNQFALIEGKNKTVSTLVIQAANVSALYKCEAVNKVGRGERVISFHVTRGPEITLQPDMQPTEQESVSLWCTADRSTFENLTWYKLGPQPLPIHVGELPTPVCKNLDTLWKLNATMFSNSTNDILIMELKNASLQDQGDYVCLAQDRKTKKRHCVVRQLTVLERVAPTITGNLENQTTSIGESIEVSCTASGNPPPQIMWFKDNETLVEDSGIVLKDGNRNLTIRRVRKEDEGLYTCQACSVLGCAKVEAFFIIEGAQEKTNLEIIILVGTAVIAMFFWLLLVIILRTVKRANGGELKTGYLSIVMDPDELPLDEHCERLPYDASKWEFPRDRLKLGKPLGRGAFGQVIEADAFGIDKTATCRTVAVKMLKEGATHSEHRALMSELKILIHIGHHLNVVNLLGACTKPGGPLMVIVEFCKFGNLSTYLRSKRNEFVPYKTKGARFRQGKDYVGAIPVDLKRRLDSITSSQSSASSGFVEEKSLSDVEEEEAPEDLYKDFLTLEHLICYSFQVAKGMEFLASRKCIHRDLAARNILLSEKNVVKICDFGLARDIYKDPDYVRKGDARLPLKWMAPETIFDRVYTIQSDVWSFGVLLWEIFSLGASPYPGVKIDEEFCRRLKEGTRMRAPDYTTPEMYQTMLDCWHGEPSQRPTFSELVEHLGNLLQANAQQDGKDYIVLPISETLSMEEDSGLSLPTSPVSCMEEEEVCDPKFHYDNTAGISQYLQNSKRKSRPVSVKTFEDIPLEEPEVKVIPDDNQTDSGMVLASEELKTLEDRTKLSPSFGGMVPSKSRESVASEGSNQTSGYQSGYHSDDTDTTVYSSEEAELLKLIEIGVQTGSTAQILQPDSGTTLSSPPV
KDR (VEGFR2), sequence (P35968 790-1356): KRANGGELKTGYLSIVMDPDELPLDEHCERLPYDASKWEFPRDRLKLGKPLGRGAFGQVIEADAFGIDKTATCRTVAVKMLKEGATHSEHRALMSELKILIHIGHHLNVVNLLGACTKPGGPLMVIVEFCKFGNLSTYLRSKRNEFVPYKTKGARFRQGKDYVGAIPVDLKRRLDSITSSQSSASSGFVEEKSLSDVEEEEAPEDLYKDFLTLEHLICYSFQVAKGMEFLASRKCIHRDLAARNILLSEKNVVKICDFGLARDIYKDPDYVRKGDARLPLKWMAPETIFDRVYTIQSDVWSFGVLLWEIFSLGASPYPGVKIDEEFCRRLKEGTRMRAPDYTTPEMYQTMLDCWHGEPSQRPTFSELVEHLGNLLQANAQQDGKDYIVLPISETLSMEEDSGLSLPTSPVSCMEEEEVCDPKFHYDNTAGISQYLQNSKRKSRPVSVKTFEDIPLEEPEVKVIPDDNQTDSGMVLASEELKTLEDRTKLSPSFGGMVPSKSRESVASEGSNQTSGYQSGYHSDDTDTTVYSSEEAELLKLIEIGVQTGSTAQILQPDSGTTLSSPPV

| SMILES | IC50 [1] [nM] | fraction unbound at 2 h, 2 μM (melanin) | IC50 (KDR (VEGFR2)) [nM] | IC50 (EGFR) [nM] |
| --- | --- | --- | --- | --- |
| O=C(NC1CC1)c1ccccc1Sc1ccc2c(/C=C/c3ccc(CN4CCCC4)cn3)n[nH]c2c1 [Compound I-41, N-cyclopropyl-2-({3-[(E)-2-{5-[(pyrrolidin-1-yl)methyl]pyridin-2-yl}vinyl]-1H-indazol-6-yl}thio)benzamide] | ≤ 1 | > 0.05 | ≤ 1 | 6000 to 60000 |
| CN1CCC(CCOc2ccc(/C=C/c3n[nH]c4cc(Sc5ccccc5C(=O)NC5CC5)ccc34)nc2)CC1 [Compound I-42, N-cyclopropyl-2-({3-[(E)-2-{5-[2-(1-methylpiperidin-4-yl)ethoxy]pyridin-2-yl}vinyl]-1H-indazol-6-yl}thio)benzamide] | ≤ 1 | 0.01 to 0.05 | ≤ 1 | > 60000 |
| O=C(NC1CC1)c1ccccc1Sc1ccc2c(/C=C/c3cnn(CCCN4CCCC4)c3)n[nH]c2c1 [Compound I-43, N-cyclopropyl-2-({3-[(E)-2-{1-[3-(pyrrolidin-1-yl)propyl]-1H-pyrazol-4-yl}vinyl]-1H-indazol-6-yl}thio)benzamide] | ≤ 1 | 0.01 to 0.05 | ≤ 1 | 6000 to 60000 |
| O=C(NC1CC1)c1ccccc1Sc1ccc2c(/C=C/c3ccc(CCN4CCCC4)cn3)n[nH]c2c1 [Compound I-55, N-cyclopropyl-2-({3-[(E)-2-{5-[2-(pyrrolidin-1-yl)ethyl]pyridin-2-yl}vinyl]-1H-indazol-6-yl}thio)benzamide] | ≤ 1 | 0.01 to 0.05 | ≤ 1 | 6000 to 60000 |
| O=C(NC1CC1)c1ccccc1Sc1ccc2c(/C=C/c3ccc(CCCN4CCCC4)cn3)n[nH]c2c1 [Compound I-59, N-cyclopropyl-2-({3-[(E)-2-{5-[3-(pyrrolidin-1-yl)propyl]pyridin-2-yl}vinyl]-1H-indazol-6-yl}thio)benzamide] | ≤ 1 | 0.01 to 0.05 | ≤ 1 | 6000 to 60000 |
| O=C(NC1CC1)c1ccccc1Sc1ccc2c(/C=C/c3cnn(CCN4CCCC4)c3)n[nH]c2c1 [Compound I-61, N-cyclopropyl-2-({3-[(E)-2-{1-[2-(pyrrolidin-1-yl)ethyl]-1H-pyrazol-4-yl}vinyl]-1H-indazol-6-yl}thio)benzamide] | ≤ 1 | 0.01 to 0.05 | 1 to 10 | 6000 to 60000 |
| O=C(NC1CC1)c1cccc(F)c1Sc1ccc2c(/C=C/c3ccc(CN4CCCC4)cn3)n[nH]c2c1 [Compound I-67] | ≤ 1 | > 0.05 | 1 to 10 | 6000 to 60000 |
| CCN(CC)Cc1ccc(/C=C/c2n[nH]c3cc(Sc4ccccc4C(=O)NC4CC4)ccc23)nc1 [Compound I-78, N-cyclopropyl-2-({3-[(E)-2-{5-[(diethylamino)methyl]pyridin-2-yl}vinyl]-1H-indazol-6-yl}thio)benzamide] | ≤ 1 | 0.01 to 0.05 | ≤ 1 | 6000 to 60000 |
| O=C(NC1CC1)c1cc(F)ccc1Sc1ccc2c(/C=C/c3ccc(CN4CCCC4)cn3)n[nH]c2c1 [Compound I-80, N-cyclopropyl-5-fluoro-2-({3-[(E)-2-{5-[(pyrrolidin-1-yl)methyl]pyridin-2-yl}vinyl]-1H-indazol-6-yl}thio)benzamide] | ≤ 1 | 0.01 to 0.05 | ≤ 1 | 6000 to 60000 |
| CCN(CC)Cc1ccc(/C=C/c2n[nH]c3cc(Sc4cc(F)ccc4C(=O)NC4CC4)ccc23)nc1 [Compound I-83, N-cyclopropyl-2-({3-[(E)-2-{5-[(diethylamino)methyl]pyridin-2-yl}vinyl]-1H-indazol-6-yl}thio)-4-fluorobenzamide] | ≤ 1 | > 0.05 | ≤ 1 | 6000 to 60000 |
| CCN(CC)Cc1ccc(/C=C/c2n[nH]c3cc(Sc4ccc(F)cc4C(=O)NC4CC4)ccc23)nc1 [Compound I-84, N-cyclopropyl-2-({3-[(E)-2-{5-[(diethylamino)methyl]pyridin-2-yl}vinyl]-1H-indazol-6-yl}thio)-5-fluorobenzamide] | ≤ 1 | > 0.05 | 1 to 10 | 6000 to 60000 |

Continued, values first:

| IC50 [1] [nM] | fraction unbound at 2 h, 2 μM (melanin) | IC50 (KDR (VEGFR2)) [nM] | IC50 (EGFR) [nM] | SMILES |
| --- | --- | --- | --- | --- |
| ≤ 1 | 0.01 to 0.05 | ≤ 1 | 6000 to 60000 | CCNC(=O)c1ccccc1Sc1ccc2c(/C=C/c3ccc(CN(CC)CC)cn3)n[nH]c2c1 [Compound I-86, 2-({3-[(E)-2-{5-[(diethylamino)methyl]pyridin-2-yl}vinyl]-1H-indazol-6-yl}thio)-N-ethylbenzamide] |
| ≤ 1 | 0.01 to 0.05 | 1 to 10 | 6000 to 60000 | CCN(CC)Cc1ccc(/C=C/c2n[nH]c3cc(Sc4ccccc4C(=O)NC)ccc23)nc1 [Compound I-90, 2-({3-[(E)-2-{5-[(diethylamino)methyl]pyridin-2-yl}vinyl]-1H-indazol-6-yl}thio)-N-methylbenzamide] |
| ≤ 1 | > 0.05 | 1 to 10 | 6000 to 60000 | CCN(CC)Cc1ccc(/C=C/c2n[nH]c3cc(Sc4ccccc4C(=O)NCC(F)(F)F)ccc23)nc1 [Compound I-100, 2-({3-[(E)-2-{5-[(diethylamino)methyl]pyridin-2-yl}vinyl]-1H-indazol-6-yl}thio)-N-(2,2,2-trifluoroethyl)benzamide] |
| ≤ 1 | > 0.05 | ≤ 1 | > 60000 | CCNC(=O)c1cc(F)ccc1Sc1ccc2c(/C=C/c3cnn(CCCN4CCCC4)c3)n[nH]c2c1 [Compound I-104, N-ethyl-5-fluoro-2-({3-[(E)-2-{1-[3-(pyrrolidin-1-yl)propyl]-1H-pyrazol-4-yl}vinyl]-1H-indazol-6-yl}thio)benzamide] |
| ≤ 1 | 0.01 to 0.05 | 1 to 10 | 6000 to 60000 | CNC(=O)c1ccccc1Sc1ccc2c(/C=C/c3ccc(CCN4CCCC4)cn3)n[nH]c2c1 [Compound I-107, N-methyl-2-({3-[(E)-2-{5-[2-(pyrrolidin-1-yl)ethyl]pyridin-2-yl}vinyl]-1H-indazol-6-yl}thio)benzamide] |
| 1 to 5 |  | 1 to 10 | 6000 to 60000 | O=C(NC1CC1)c1ccccc1Sc1ccc2c(/C=C/c3cc(OCCN4CCCC4)ccn3)n[nH]c2c1 [Compound I-110, N-cyclopropyl-2-({3-[(E)-2-{4-[2-(pyrrolidin-1-yl)ethoxy]pyridin-2-yl}vinyl]-1H-indazol-6-yl}thio)benzamide] |
| > 5 |  | > 100 | 6000 to 60000 | CCNC(=O)c1cccc(F)c1Sc1ccc2c(/C=C/c3cccc(CN4CCCC4)n3)n[nH]c2c1 [Compound I-113, N-ethyl-3-fluoro-2-({3-[(E)-2-{6-[(pyrrolidin-1-yl)methyl]pyridin-2-yl}vinyl]-1H-indazol-6-yl}thio)benzamide] |

From patent US20260049071A1, “PROTEIN TYROSINE KINASE INHIBITOR AND MEDICAL USE THEREOF” (BEYANG THERAPEUTICS CO., LTD., priority 2022, published 2026)
